Source: ChEMBL document CHEMBL3390848, “Affinity selection and sequence-activity relationships of HIV-1 membrane fusion inhibitors directed at the drug-resistant variants” (Medchemcomm, 2010)
Residues, ends and D or L forms follow the SMILES beside them.

Tests used:
[1] = system: Envelope glycoprotein gp160 (Human immunodeficiency virus 1), Q72502 [V38A]; experiment: Thermal stability of HIV1 envelope glycoprotein gp41 His-tagged N-terminal heptad repeat N36 V38A mutant-drug complex assessed as thermal unfolding transition state by measuring molar ellipticity at 4 to 90 degC by circular dichroic spectra analysis
[2] = system: Human immunodeficiency virus 1; experiment: Binding affinity to HIV1 His-tagged N-terminal heptad repeat of envelope glycoprotein gp41 assessed as recovery of N36 N43D mutant-drug complex after 2 hrs by LC-MS analysis; parameters: concentration or dose not given beside the values
[3] = system: Envelope glycoprotein gp160 (Human immunodeficiency virus 1), Q72502 [V38A]; experiment: Binding affinity to HIV1 His-tagged N-terminal heptad repeat of envelope glycoprotein gp41 assessed as recovery of N36 V38A mutant-drug complex after 2 hrs by LC-MS analysis; parameters: concentration or dose not given beside the values
[4] = system: Human immunodeficiency virus 1; experiment: Thermal stability of HIV1 envelope glycoprotein gp41 His-tagged N-terminal heptad repeat N36 N43D mutant-drug complex assessed as thermal unfolding transition state by measuring molar ellipticity at 4 to 90 degC by circular dichroic spectra analysis
[5] = system: Human immunodeficiency virus 1; experiment: Binding affinity to HIV1 His-tagged N-terminal heptad repeat of envelope glycoprotein gp41 assessed as recovery of N36-drug complex at 6 uM after 2 hrs by LC-MS analysis
[6] = system: Human immunodeficiency virus 1; experiment: Antiviral activity against HIV1 NL4-3 harboring gp41 D36G mutant infected in human HeLa cells expressing CD4-LTR-beta-gal assessed as inhibition of viral replication after 48 hrs by MAGI assay; assay type: functional, organism-based
[7] = system: Human immunodeficiency virus 1; experiment: Binding affinity to HIV1 His-tagged N-terminal heptad repeat of envelope glycoprotein gp41 assessed as recovery of N36-drug complex at 0.6 uM after 2 hrs by LC-MS analysis
[8] = system: Human immunodeficiency virus 1; experiment: Thermal stability of HIV1 envelope glycoprotein gp41 His-tagged N-terminal heptad repeat N36-drug complex assessed as thermal unfolding transition state by measuring molar ellipticity at 4 to 90 degC by circular dichroic spectra analysis
[9] = system: Human immunodeficiency virus 1; experiment: Binding affinity to HIV1 His-tagged N-terminal heptad repeat of envelope glycoprotein gp41 assessed as recovery of N36-drug complex at 10 uM after 2 hrs by LC-MS analysis
[10] = system: Human immunodeficiency virus 1; experiment: Binding affinity to HIV1 His-tagged N-terminal heptad repeat of envelope glycoprotein gp41 assessed as recovery of N36-drug complex at 1 uM after 2 hrs by LC-MS analysis
[11] = system: Human immunodeficiency virus 1; experiment: Binding affinity to HIV1 His-tagged N-terminal heptad repeat of envelope glycoprotein gp41 assessed as recovery of N54-drug complex after 2 hrs by LC-MS analysis; parameters: concentration or dose not given beside the values
[12] = system: Human immunodeficiency virus 1; experiment: Thermal stability of HIV1 envelope glycoprotein gp41 His-tagged N-terminal heptad repeat N54-drug complex assessed as thermal unfolding transition state by measuring molar ellipticity at 4 to 90 degC by circular dichroic spectra analysis
[13] = system: Envelope glycoprotein gp160 (Human immunodeficiency virus 1), Q72502 [V38A]; experiment: Binding affinity to HIV1 His-tagged N-terminal heptad repeat of envelope glycoprotein gp41 assessed as recovery of N54 V38A mutant-drug complex after 2 hrs by LC-MS analysis; parameters: concentration or dose not given beside the values
[14] = system: Human immunodeficiency virus 1; experiment: Thermal stability of HIV1 envelope glycoprotein gp41 His-tagged N-terminal heptad repeat N54 N43D mutant-drug complex assessed as thermal unfolding transition state by measuring molar ellipticity at 4 to 90 degC by circular dichroic spectra analysis
[15] = system: Envelope glycoprotein gp160 (Human immunodeficiency virus 1), Q72502 [V38A]; experiment: Thermal stability of HIV1 envelope glycoprotein gp41 His-tagged N-terminal heptad repeat N54 V38A mutant-drug complex assessed as thermal unfolding transition state by measuring molar ellipticity at 4 to 90 degC by circular dichroic spectra analysis
[16] = system: Human immunodeficiency virus 1; experiment: Binding affinity to HIV1 His-tagged N-terminal heptad repeat of envelope glycoprotein gp41 assessed as recovery of N54 N43D mutant-drug complex after 2 hrs by LC-MS analysis; parameters: concentration or dose not given beside the values

Compound	Tm [1] [°C]	Activity [2] [%]	Activity [3] [%]	Tm [4] [°C]	Activity [5] [%]	EC50 [6] [nM]	Activity [7] [%]	Tm [8] [°C]	Activity [9] [%]	Activity [10] [%]	Activity [11] [%]	Tm [12] [°C]	Activity [13] [%]	Tm [14] [°C]	Tm [15] [°C]	Activity [16] [%]
CC[C@H](C)[C@H](NC(=O)[C@H](CC(C)C)NC(=O)[C@H](CCC(=O)O)NC(=O)[C@H](CCC(=O)O)NC(=O)[C@@H](NC(=O)[C@H](CCCCN)NC(=O)[C@H](CCCCN)NC(=O)[C@@H](NC(=O)[C@H](Cc1ccc(O)cc1)NC(=O)[C@H](CCC(=O)O)NC(=O)[C@H](CCC(=O)O)NC(=O)[C@@H](NC(=O)[C@H](CCCCN)NC(=O)[C@H](CCCCN)NC(=O)[C@H](CC(=O)O)NC(=O)[C@H](Cc1c[nH]c2ccccc12)NC(=O)[C@H](CCC(=O)O)NC(=O)[C@H](CCC(=O)O)NC(=O)[C@H](Cc1c[nH]c2ccccc12)NC(C)=O)[C@@H](C)CC)[C@@H](C)O)[C@@H](C)CC)C(=O)N[C@@H](CCCCN)C(=O)N[C@@H](CCCCN)C(=O)N[C@@H](CC(C)C)C(=O)N[C@@H](CCC(=O)O)C(=O)N[C@@H](CCC(=O)O)C(=O)N[C@@H](CCC(N)=O)C(=O)N[C@@H](CCC(N)=O)C(=O)N[C@@H](CCCCN)C(=O)N[C@@H](CCCCN)C(=O)N[C@@H](CC(N)=O)C(=O)N[C@@H](CCC(=O)O)C(=O)N[C@@H](CCC(=O)O)C(=O)N[C@@H](CCC(=O)O)C(=O)N[C@@H](CC(C)C)C(=O)N[C@@H](CCCCN)C(=O)N[C@@H](CCCCN)C(N)=O (Ac-WEEWDKKIEEYTKKIEELIKKLEEQQKKNEEELKK-NH2)	75	12.9	10.3	80	7.6	0.2	6.9	83.2	4.7	11.3	–	–	–	–	–	–
CC[C@H](C)[C@H](NC(=O)[C@H](CC(C)C)NC(=O)[C@H](CCC(=O)O)NC(=O)[C@H](CCC(=O)O)NC(=O)[C@@H](NC(=O)[C@H](CC(C)C)NC(=O)[C@H](CO)NC(=O)[C@@H](NC(=O)[C@H](Cc1ccc(O)cc1)NC(C)=O)[C@@H](C)O)[C@@H](C)CC)C(=O)N[C@@H](CCCCN)C(=O)N[C@@H](CCCCN)C(=O)N[C@H](C(=O)N[C@@H](CCC(=O)O)C(=O)N[C@@H](CCC(=O)O)C(=O)N[C@@H](CCC(N)=O)C(=O)N[C@@H](CCC(N)=O)C(=O)N[C@@H](CCCCN)C(=O)N[C@@H](CCCCN)C(=O)N[C@@H](CC(N)=O)C(=O)N[C@@H](CCC(=O)O)C(=O)N[C@@H](CCC(=O)O)C(=O)N[C@@H](CCC(=O)O)C(=O)N[C@@H](CC(C)C)C(=O)N[C@@H](CCCCN)C(=O)N[C@@H](CCCCN)C(=O)N[C@@H](CC(C)C)C(=O)N[C@@H](CCC(=O)O)C(=O)N[C@@H](CCC(=O)O)C(=O)N[C@@H](Cc1c[nH]c2ccccc12)C(=O)N[C@@H](C)C(=O)N[C@@H](CCCCN)C(=O)N[C@@H](CCCCN)C(=O)N[C@@H](Cc1c[nH]c2ccccc12)C(=O)N[C@@H](CC(N)=O)C(=O)N[C@@H](Cc1c[nH]c2ccccc12)C(=O)N[C@@H](Cc1ccccc1)C(N)=O)[C@@H](C)O (Ac-YTSLIEELIKKTEEQQKKNEEELKKLEEWAKKWNWF-NH2)	–	–	–	–	–	0.4	–	–	–	–	10	75.9	8.1	62.4	57.8	6.1
CC[C@H](C)[C@H](NC(=O)[C@H](CCCCN)NC(=O)[C@H](CCCCN)NC(=O)[C@H](CC(=O)O)NC(=O)[C@H](Cc1c[nH]c2ccccc12)NC(=O)[C@H](CCC(=O)O)NC(=O)[C@H](CCC(=O)O)NC(=O)[C@H](Cc1c[nH]c2ccccc12)NC(C)=O)C(=O)N[C@@H](CCC(=O)O)C(=O)N[C@@H](CCC(=O)O)C(=O)N[C@@H](Cc1ccc(O)cc1)C(=O)N[C@H](C(=O)N[C@@H](CCCCN)C(=O)N[C@@H](CCCCN)C(=O)N[C@H](C(=O)N[C@@H](CCC(=O)O)C(=O)N[C@@H](CCC(=O)O)C(=O)N[C@@H](CC(C)C)C(=O)N[C@H](C(=O)N[C@@H](CCCCN)C(=O)N[C@@H](CCCCN)C(=O)N1CCC[C@H]1C(=O)N[C@@H](CCC(=O)O)C(=O)N[C@@H](CCC(=O)O)C(=O)N[C@@H](CCC(N)=O)C(=O)N[C@@H](CCC(N)=O)C(=O)N[C@@H](CCCCN)C(=O)N[C@@H](CCCCN)C(=O)N[C@@H](CC(N)=O)C(=O)N[C@@H](CCC(=O)O)C(=O)N[C@@H](CCC(=O)O)C(=O)N[C@@H](CCC(=O)O)C(=O)N[C@@H](CC(C)C)C(=O)N[C@@H](CCCCN)C(=O)N[C@@H](CCCCN)C(N)=O)[C@@H](C)CC)[C@@H](C)CC)[C@@H](C)O (Ac-WEEWDKKIEEYTKKIEELIKKPEEQQKKNEEELKK-NH2)	56.3	0.3	0.4	55.6	0.2	35	4.5	56.1	0.4	0.1	–	–	–	–	–	–
CC[C@H](C)[C@H](NC(=O)[C@H](CC(C)C)NC(=O)[C@H](CO)NC(=O)[C@@H](NC(=O)[C@H](Cc1ccc(O)cc1)NC(C)=O)[C@@H](C)O)C(=O)N[C@@H](CCC(=O)O)C(=O)N[C@@H](CCC(=O)O)C(=O)N[C@@H](CC(C)C)C(=O)N[C@H](C(=O)N[C@@H](CCCCN)C(=O)N[C@@H](CCCCN)C(=O)N1CCC[C@H]1C(=O)N[C@@H](CCC(=O)O)C(=O)N[C@@H](CCC(=O)O)C(=O)N[C@@H](CCC(N)=O)C(=O)N[C@@H](CCC(N)=O)C(=O)N[C@@H](CCCCN)C(=O)N[C@@H](CCCCN)C(=O)N[C@@H](CC(N)=O)C(=O)N[C@@H](CCC(=O)O)C(=O)N[C@@H](CCC(=O)O)C(=O)N[C@@H](CCC(=O)O)C(=O)N[C@@H](CC(C)C)C(=O)N[C@@H](CCCCN)C(=O)N[C@@H](CCCCN)C(=O)N[C@@H](CC(C)C)C(=O)N[C@@H](CCC(=O)O)C(=O)N[C@@H](CCC(=O)O)C(=O)N[C@@H](Cc1c[nH]c2ccccc12)C(=O)N[C@@H](C)C(=O)N[C@@H](CCCCN)C(=O)N[C@@H](CCCCN)C(=O)N[C@@H](Cc1c[nH]c2ccccc12)C(=O)N[C@@H](CC(N)=O)C(=O)N[C@@H](Cc1c[nH]c2ccccc12)C(=O)N[C@@H](Cc1ccccc1)C(N)=O)[C@@H](C)CC (Ac-YTSLIEELIKKPEEQQKKNEEELKKLEEWAKKWNWF-NH2)	–	–	–	–	–	44	–	–	–	–	0.2	55.5	0	55	49.7	0.3
CC[C@H](C)[C@H](NC(=O)[C@H](CC(C)C)NC(=O)[C@H](CCC(=O)O)NC(=O)[C@H](CCC(=O)O)NC(=O)[C@@H](NC(=O)[C@H](CC(C)C)NC(=O)[C@H](CO)NC(=O)[C@@H](NC(=O)[C@H](Cc1ccc(O)cc1)NC(C)=O)[C@@H](C)O)[C@@H](C)CC)C(=O)N[C@@H](CCCCN)C(=O)N[C@@H](CCCCN)C(=O)N[C@@H](CO)C(=O)N[C@@H](CCC(=O)O)C(=O)N[C@@H](CCC(=O)O)C(=O)N[C@@H](CCC(N)=O)C(=O)N[C@@H](CCC(N)=O)C(=O)N[C@@H](CCCCN)C(=O)N[C@@H](CCCCN)C(=O)N[C@@H](CC(N)=O)C(=O)N[C@@H](CCC(=O)O)C(=O)N[C@@H](CCC(=O)O)C(=O)N[C@@H](CCC(=O)O)C(=O)N[C@@H](CC(C)C)C(=O)N[C@@H](CCCCN)C(=O)N[C@@H](CCCCN)C(=O)N[C@@H](CC(C)C)C(=O)N[C@@H](CCC(=O)O)C(=O)N[C@@H](CCC(=O)O)C(=O)N[C@@H](Cc1c[nH]c2ccccc12)C(=O)N[C@@H](C)C(=O)N[C@@H](CCCCN)C(=O)N[C@@H](CCCCN)C(=O)N[C@@H](Cc1c[nH]c2ccccc12)C(=O)N[C@@H](CC(N)=O)C(=O)N[C@@H](Cc1c[nH]c2ccccc12)C(=O)N[C@@H](Cc1ccccc1)C(N)=O (Ac-YTSLIEELIKKSEEQQKKNEEELKKLEEWAKKWNWF-NH2)	–	–	–	–	–	1.1	–	–	–	–	8.2	78.8	9.3	65.3	60	7.4
